Test results: PubChem BioAssay (NCI)
Several values for one entry are separate records, joined by “and”; a condition that tells them apart may be missing. Equal values may be shown once.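 Compound exposure: 48 hours, 5 concentrations, 96-well plates. Abbreviation: GI50, concentration required for 50% inhibition of growth. The concentration for full growth arrest is given as TGI.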

How the values were obtained:
Test in all cases: NCI tumour cell line growth inhibition, 48 h
OVCAR-4 ovarian = test system: OVCAR-4 ovarian
BT-549 breast = test system: BT-549 breast
HOP-62 NSCLC = test system: HOP-62 NSCLC
RXF 393 renal = test system: RXF 393 renal
IGROV1 ovarian = test system: IGROV1 ovarian
EKVX NSCLC = test system: EKVX NSCLC
COLO 205 colon = test system: COLO 205 colon
SN12C renal = test system: SN12C renal
NCI-H23 lung = test system: NCI-H23 lung
SK-OV-3 ovarian = test system: SK-OV-3 ovarian

## c1ccc(COc2ncccc2C2SCCCS2)cc1
OVCAR-4 ovarian
  TGI: > 100 µM
BT-549 breast
  TGI: > 100 µM
HOP-62 NSCLC
  TGI: > 100 µM
RXF 393 renal
  TGI: > 100 µM
IGROV1 ovarian
  TGI: > 100 µM
EKVX NSCLC
  TGI: > 100 µM
COLO 205 colon
  TGI: > 100 µM
SN12C renal
  TGI: > 100 µM
NCI-H23 lung
  TGI: > 100 µM

## C=C1C(=O)C[C@@]23CCC[C@@]12CC(O)C3 (stereo partly drawn)
OVCAR-4 ovarian
  TGI: 36.2 µM
SK-OV-3 ovarian
  TGI: 67.5 µM
HOP-62 NSCLC
  TGI: > 100 µM
RXF 393 renal
  TGI: 33.8 µM
IGROV1 ovarian
  TGI: 12.8 µM
EKVX NSCLC
  TGI: > 73.5 µM
COLO 205 colon
  TGI: 41.1 µM
SN12C renal
  TGI: 38.1 µM
NCI-H23 lung
  TGI: 53.8 µM

## CCOc1cc(C=O)ccc1O
OVCAR-4 ovarian
  TGI: > 100 µM
HOP-62 NSCLC
  TGI: > 100 µM
IGROV1 ovarian
  TGI: > 100 µM
EKVX NSCLC
  TGI: > 100 µM
COLO 205 colon
  TGI: > 100 µM
SN12C renal
  TGI: > 100 µM
NCI-H23 lung
  TGI: > 100 µM

## Cc1cnc2[nH]c(-c3ccccc3)cc(=O)c2c1
OVCAR-4 ovarian
  TGI: > 100 µM
BT-549 breast
  TGI: > 100 µM
SK-OV-3 ovarian
  TGI: 16.4 µM
HOP-62 NSCLC
  TGI: > 100 µM
IGROV1 ovarian
  TGI: > 100 µM
EKVX NSCLC
  TGI: > 82.2 µM
COLO 205 colon
  TGI: > 100 µM
SN12C renal
  TGI: > 14 µM
NCI-H23 lung
  TGI: > 13.5 µM

## c1ccc(C/C(=N\Nc2nc3ccccc3o2)c2ccccn2)cc1
BT-549 breast
  TGI: 5.73 µM
SK-OV-3 ovarian
  TGI: 0.0726 µM
HOP-62 NSCLC
  TGI: 1.55 µM
RXF 393 renal
  TGI: 1.92 µM
IGROV1 ovarian
  TGI: 0.609 µM
EKVX NSCLC
  TGI: < 0.0267 µM
COLO 205 colon
  TGI: 0.0114 µM
SN12C renal
  TGI: 3.67 µM
NCI-H23 lung
  TGI: > 36.4 µM

## C=C1c2nc3ccccc3n2C=C(c2ccccc2)N1c1ccc(OC)cc1
OVCAR-4 ovarian
  TGI: > 100 µM
BT-549 breast
  TGI: 38.3 µM
SK-OV-3 ovarian
  TGI: > 100 µM
RXF 393 renal
  TGI: 83.5 µM
IGROV1 ovarian
  TGI: 35.8 µM
EKVX NSCLC
  TGI: > 100 µM
COLO 205 colon
  TGI: > 100 µM
SN12C renal
  TGI: > 100 µM
NCI-H23 lung
  TGI: 74.4 µM

## C[C@@H](C[C@@H](O)[C@H](O)C(C)(C)O)[C@H]1CC=C2[C@]3(C)[C@H](O)C[C@H]4C(C)(C)[C@H](O)CC[C@]4(C)[C@H]3CC[C@@]21C
OVCAR-4 ovarian
  TGI: 27.5 µM
BT-549 breast
  TGI: 31.1 µM
HOP-62 NSCLC
  TGI: 28.5 µM
RXF 393 renal
  TGI: 35.7 µM
IGROV1 ovarian
  TGI: 30.1 µM
EKVX NSCLC
  TGI: 26.1 µM
COLO 205 colon
  TGI: 28.5 µM
SN12C renal
  TGI: 31 µM
NCI-H23 lung
  TGI: 33.6 µM

## COc1cc2cc3c4c(cc(OC)c(OC)c4c2cc1OC)CCN3C(=O)OCCBr
SK-OV-3 ovarian
  TGI: > 100 µM
RXF 393 renal
  TGI: > 100 µM
IGROV1 ovarian
  TGI: > 100 µM
EKVX NSCLC
  TGI: > 100 µM
COLO 205 colon
  TGI: > 100 µM
SN12C renal
  TGI: > 100 µM
NCI-H23 lung
  TGI: > 100 µM

## C/C=C\C(CC(=O)O)CC(=O)NCCC1CN(S(=O)(=O)C(F)(F)F)c2ccccc21 (stereo not drawn)
OVCAR-4 ovarian
  TGI: > 100 µM
BT-549 breast
  TGI: > 100 µM
SK-OV-3 ovarian
  TGI: > 100 µM
HOP-62 NSCLC
  TGI: > 100 µM
RXF 393 renal
  TGI: > 100 µM
IGROV1 ovarian
  TGI: > 100 µM
EKVX NSCLC
  TGI: > 100 µM
COLO 205 colon
  TGI: > 100 µM
NCI-H23 lung
  TGI: > 100 µM

## CCCCCCCC(CC(=O)O)OC(=O)CC(CCCCCCC)OC1OC(C)C(O)C(O)C1OC1OC(C)C(O)C(O)C1O (stereo not drawn)
BT-549 breast
  TGI: > 100 µM
SK-OV-3 ovarian
  TGI: > 100 µM
HOP-62 NSCLC
  TGI: > 100 µM
IGROV1 ovarian
  TGI: > 100 µM
EKVX NSCLC
  TGI: > 100 µM
COLO 205 colon
  TGI: > 100 µM
SN12C renal
  TGI: > 100 µM
NCI-H23 lung
  TGI: > 100 µM

## CCOC(=O)C(Cc1c(-c2[nH]c3ccccc3c2CC(NC(=O)CNC(C)=O)C(=O)OCC)[nH]c2ccccc12)NC(=O)CNC(C)=O (stereo not drawn)
OVCAR-4 ovarian
  TGI: > 100 µM
BT-549 breast
  TGI: > 100 µM
SK-OV-3 ovarian
  TGI: > 100 µM
HOP-62 NSCLC
  TGI: > 100 µM
IGROV1 ovarian
  TGI: > 100 µM
EKVX NSCLC
  TGI: > 100 µM
COLO 205 colon
  TGI: 35.4 µM
SN12C renal
  TGI: > 100 µM
NCI-H23 lung
  TGI: > 100 µM

## COC(=O)c1cc2c3c(c(C(C)=O)c(OC)c2[nH]1)NCC3
BT-549 breast
  TGI: > 50 µM
SK-OV-3 ovarian
  TGI: > 50 µM
HOP-62 NSCLC
  TGI: > 50 µM
RXF 393 renal
  TGI: > 50 µM
IGROV1 ovarian
  TGI: > 50 µM
EKVX NSCLC
  TGI: > 50 µM
COLO 205 colon
  TGI: > 50 µM
SN12C renal
  TGI: > 50 µM
NCI-H23 lung
  TGI: > 50 µM

## O=C(CCCN1CCc2[nH]c3cc(F)ccc3c2C1)c1ccc(F)cc1
OVCAR-4 ovarian
  TGI: 26.9 µM
HOP-62 NSCLC
  TGI: 29.8 µM
RXF 393 renal
  TGI: 28.3 µM
IGROV1 ovarian
  TGI: 30.2 µM
EKVX NSCLC
  TGI: 29.3 µM
COLO 205 colon
  TGI: 17.1 µM
SN12C renal
  TGI: 27.7 µM
NCI-H23 lung
  TGI: 28 µM

## CCC1(O)CN(CCOC)[C@H]2C[C@@H]1C(=O)c1[nH]c3ccccc3c12 (stereo partly drawn)
OVCAR-4 ovarian
  TGI: > 100 µM
BT-549 breast
  TGI: > 100 µM
HOP-62 NSCLC
  TGI: > 100 µM
RXF 393 renal
  TGI: > 100 µM
IGROV1 ovarian
  TGI: > 100 µM
EKVX NSCLC
  TGI: > 100 µM
COLO 205 colon
  TGI: > 100 µM
SN12C renal
  TGI: > 100 µM
NCI-H23 lung
  TGI: > 100 µM

## Cc1cccc(N2CCN(S(=O)(=O)c3ccc(Cl)cc3)C2=N)c1C
BT-549 breast
  TGI: > 100 µM
SK-OV-3 ovarian
  TGI: > 100 µM
RXF 393 renal
  TGI: > 100 µM
IGROV1 ovarian
  TGI: 99.3 µM
COLO 205 colon
  TGI: > 100 µM
SN12C renal
  TGI: > 100 µM
NCI-H23 lung
  TGI: > 100 µM

## CC(=O)Nc1ccc(C(=O)N2N=C(C)/C(=C/c3cccc(O)c3)C2=O)cc1
OVCAR-4 ovarian
  TGI: > 100 µM
HOP-62 NSCLC
  TGI: > 100 µM
EKVX NSCLC
  TGI: > 100 µM
COLO 205 colon
  TGI: > 100 µM
SN12C renal
  TGI: > 100 µM
NCI-H23 lung
  TGI: > 100 µM

## C=C1C(=O)O[C@H]2C(=O)[C@H](C)CCC[C@@](C)(O)/C=C\C[C@@]3(C)O[C@@H]3C[C@@H]12
SK-OV-3 ovarian
  TGI: > 100 µM
IGROV1 ovarian
  TGI: 41.6 µM
COLO 205 colon
  TGI: 30.4 µM
SN12C renal
  TGI: 31.3 µM
NCI-H23 lung
  TGI: 68.8 µM

## COc1cccc(N2N=C3c4ccccc4-n4c(nc5ccccc54)C3C2N)c1 (stereo not drawn)
OVCAR-4 ovarian
  TGI: > 100 µM
BT-549 breast
  TGI: > 100 µM
HOP-62 NSCLC
  TGI: > 100 µM
IGROV1 ovarian
  TGI: > 100 µM
EKVX NSCLC
  TGI: > 100 µM
COLO 205 colon
  TGI: > 100 µM
SN12C renal
  TGI: > 100 µM
NCI-H23 lung
  TGI: > 100 µM

## COC1(OC)/C(=C(\N)C=O)NC(C)(C)N1O
OVCAR-4 ovarian
  TGI: > 100 µM
BT-549 breast
  TGI: > 100 µM
HOP-62 NSCLC
  TGI: > 100 µM
RXF 393 renal
  TGI: > 100 µM
IGROV1 ovarian
  TGI: > 100 µM
EKVX NSCLC
  TGI: > 100 µM
COLO 205 colon
  TGI: > 100 µM
SN12C renal
  TGI: > 100 µM
NCI-H23 lung
  TGI: > 100 µM

## Cc1ccc(Nc2nnc3n2S(=O)(=O)c2cc(C)c(Cl)cc2S3)cc1
OVCAR-4 ovarian
  TGI: > 100 µM
BT-549 breast
  TGI: 31.3 µM
HOP-62 NSCLC
  TGI: 51.8 µM
RXF 393 renal
  TGI: 49.1 µM
IGROV1 ovarian
  TGI: > 100 µM
EKVX NSCLC
  TGI: 87.4 µM
NCI-H23 lung
  TGI: 48.3 µM

## COc1ccc(C=O)cc1Oc1ccc(C[C@H]2c3c(cc(OC)c4c3Oc3cc5c(cc3O4)CCN(C)C5=O)CCN2C)cc1
OVCAR-4 ovarian
  TGI: 17.7 µM
SK-OV-3 ovarian
  TGI: 17.5 µM
HOP-62 NSCLC
  TGI: 15.1 µM
RXF 393 renal
  TGI: 10.8 µM
IGROV1 ovarian
  TGI: 13.7 µM
EKVX NSCLC
  TGI: 22.3 µM
COLO 205 colon
  TGI: > 50 µM
SN12C renal
  TGI: 43 µM
NCI-H23 lung
  TGI: 16 µM

## CC(=O)c1c(O)c(C)c(O)c2c1OC1=CC(=O)C(C(C)=O)C(=O)C12C (stereo not drawn)
OVCAR-4 ovarian
  GI50: 5.28 µM and 9.79 µM
  TGI: 61.3 µM and 35.1 µM
SK-OV-3 ovarian
  GI50: 9.68 µM and 26.5 µM
  TGI: 56.1 µM and 80.6 µM
HOP-62 NSCLC
  GI50: 3.66 µM and 20.1 µM
  TGI: 12.2 µM and 46.1 µM
RXF 393 renal
  GI50: 5.72 µM and 19.2 µM
  TGI: 22.8 µM and 43.8 µM
IGROV1 ovarian
  GI50: 5.63 µM and 17.9 µM
  TGI: 38.5 µM and 75.4 µM
EKVX NSCLC
  GI50: 4.39 µM and 20.3 µM
  TGI: 17 µM and 48.2 µM
COLO 205 colon
  GI50: 4.71 µM and 19.9 µM
  TGI: 17.4 µM and 54.8 µM
SN12C renal
  TGI: 8.95 µM and 50.1 µM
NCI-H23 lung
  GI50: 6.72 µM and 18.7 µM
  TGI: 26.6 µM and 49.6 µM
